{"source": "patent US20250213575A1", "about": "“8-HETEROCYCLIC-3-(PHENYLSULFONYL)-[1,2,3]TRIAZOLO[1,5A]QUINAZOLIN-5(4H)-ONE DERIVATIVES AS ANTI-BACTERIALS” (priority 2022, published 2025)", "origin": "cited, not measured here", "test_system": "AgrA-regulated toxin gene transcription such as hla, psma and pvl", "conditions": "across all four agr groups; cited from earlier work", "data": [{"smiles": "CC(C)c1ccc(S(=O)(=O)c2nnn3c2nc(O)c2ccccc23)cc1", "note": "[Savirin]", "values": [{"measurement": "modulation of AgrA-regulated toxin gene transcription", "value": "potent modulator"}]}]}
